Residues, ends and D or L forms follow the SMILES beside them. *: point of attachment. Boc = CC(C)(C)OC(=O)*
| SMILES | melting point |
| --- | --- |
| CN(C)CC(O)COc1ccc2c(c1)OC(C)(C)CC2c1cccc2ccccc12 (stereo not drawn) | 123 to 125 °C |
| CC(C=CC=C(C)C=CC1=C(C)C(=O)CCC1(C)C)=CC=CC=C(C)C=CC=C(C)C=CC1=C(C)C(=O)CCC1(C)C | 205 to 207 °C |
| NC(=O)N(O)CCNC(=O)c1cccc(C(=O)c2ccccc2)c1 | 168 to 170 °C |
| CCCCS(=O)(=O)Nc1nc(CN2CCN(C(c3ccccc3)c3ccccc3)CC2)cs1 | 185 to 187 °C |
| CN(C)N1C(=O)C(=Cc2nc(C(C)(C)C)c(O)c(C(C)(C)C)n2)SC1=S | 100 to 105 °C |
| CC(=O)Nc1cccc(C(=O)NC(C)(C)C)c1 | 194 to 195 °C |
| CN(CCOc1ccc(C=C2SC(=O)NC2=O)cc1)c1ncccn1 | 189 to 190 °C |
| CC(=O)C(C(=O)c1ccccc1)=C1CCCN1 | 106 to 108 °C |
| CCCc1cc(C(=O)NCCC(=O)O)ccc1OC(C(=O)NS(=O)(=O)c1ccc(C(C)C)cc1)c1ccc2c(c1)OCO2 (stereo not drawn) | 199 to 201 °C |
| O=C(O)C(Cc1ccccc1)Oc1ccc(-c2ccc(-c3c(Cc4ccc(O)c(O)c4)sc4ccccc34)cc2)cc1 (stereo not drawn) | 108 to 110 °C |
| CC(=O)C1CCC2C3CCC4CC(OC(=O)OCC(Cl)(Cl)Cl)CCC4(C)C3C(NC(=O)OCC(Cl)(Cl)Cl)CC12C (stereo not drawn) | 174 to 176 °C |
| CC(C)(C)OC(=O)Nc1cc(=O)c2cc(Oc3ccccc3)c(NS(C)(=O)=O)cc2o1 | 147 to 150 °C |
| COc1cc(NC(=O)Nc2cccc3c2C2CC(=O)CCN2C3=O)nc2ccccc12 (stereo not drawn) | 223 to 225 °C |
| Fc1ccc(C(c2ccc(F)cc2)N2CCN(CCCSc3ncnc4nc[nH]c34)CC2)cc1 | 90 to 93 °C |
| Fc1ccc(Cn2c(NCCN3CCC(Nc4nc5ccccc5n4Cc4ccc(F)cc4)CC3)nc3ccccc32)cc1 | 197 °C |
| CCOC(=O)COc1ccccc1Cn1c(-c2ccc(C(F)(F)F)cc2)c(C)c2cc(OCc3ccccc3)ccc21 | 221 °C |
| CCCOCCOc1ccc(Oc2ccc3c(c2)C=C(C(=O)Nc2ccc(CN(C)C4CCOCC4)cc2)CCS3(=O)=O)cc1OCC | 159 to 160 °C |
| CC(=O)Nc1cccc2c1CCC(NC(C)c1ccccc1)C2 (stereo not drawn) | 158 °C |
| COC(=O)[C@H](Cc1ccccc1)NC(=O)c1ccc(N)cc1 | 145 to 146 °C |
| CC(=O)OCC(=O)C1(O)C(C)CC2C3CCC4=CC(=O)C=CC4(C)C34OC4CC21C (stereo not drawn) | 180 to 186 °C |
| CCCCCCNC(=O)Oc1ccc(Oc2ccccc2)cc1 | 57 to 59 °C |
| CN(C)c1nc2sc3c(NCCc4c[nH]cn4)ncnc3c2c2c1CCC2(C)C | 261 to 262 °C |
| CCCn1cc(Cc2ccc(C(=O)O)cc2OC)c2cc(CC(C)C(=O)N3CCCC3)ccc21 (stereo not drawn) | 92 to 100 °C |

| SMILES | melting point |
| --- | --- |
| CC(C)(C)OC(=O)NCC(=O)NC(Cc1ccc(O)cc1)C(=O)NC(CCCCN)C(=O)O (stereo not drawn) (Boc-Gly-Tyr-Lys-OH; configuration not given here) | > 200 °C |
| CCCCCCCCCCCCCC(=O)O[C@H](CCCCCCCCCCC)CC(=O)N[C@@H](CO)C(=O)OCc1ccccc1 | 56 to 61 °C |
| CCCn1c(=O)c(-c2ccccc2)c2n(c1=O)CCC(Sc1ccccc1)S2 (stereo not drawn) | 126 to 127 °C |
| CCC(C)C(OCc1ccccc1)C1C(C(=O)NCC(=O)O)NC(C2CCCCC2)C1[N+](=O)[O-] (stereo not drawn) | 177 to 179 °C |
| CCCCCCn1c2ccc(C)cc2c(=O)c2c1cnn2C | 80 to 82 °C |
| CCCCCCCC(=O)Nc1ccn(C2OC(CO)C(O)C2O)c(=O)n1 (stereo not drawn) | 151 to 153 °C |
| C[C@H]1[C@H](N(C)C)CN1c1cc2c(cc1F)c(=O)c(C(=O)O)cn2C1CC1 (relative stereo) | 181 to 185 °C |
| N#Cc1c(O)csc1N1CCOCC1 | 191 °C |
| N#Cc1cccc(C2=Nc3ccc(C#CC4(O)CCCCC4)cc3NC(=O)C2)c1 | 196 °C |
| NC(=O)CNC(=O)[C@@H]1CCCN1 (H-Pro-Gly-NH2) | 124 to 127 °C |
| CCCCCCCCc1cc2c(cc1C(C)=O)C(C)(C)CCS2(=O)=O | 77 to 78 °C |
| Cc1[nH]c(=S)n(Nc2ccccc2)c1-c1ccccc1 | 224 to 226 °C |
| O=C(NCC(F)(F)F)C1(CCCCSc2nccs2)c2ccccc2-c2ccccc21 | 143 to 144 °C |
| CCC(=NOC)C1=C(O)CC(c2ccc(NS(C)(=O)=O)cc2)CC1=O (stereo not drawn) | 150 to 151 °C |
| CC(Oc1ccc(Oc2ccc(C(F)(F)F)cn2)cc1)C(=O)N1CCCO1 (stereo not drawn) | 83 to 85 °C |
| CCOC(=O)OCC(I)=C(I)I | 49 to 50 °C |
| c1ccc2c(c1)OC(c1ccc(OCCN3CCCCC3)cc1)c1c-2sc2ccccc12 (stereo not drawn) | 107 °C |
| CCc1c(C(=O)C(N)=O)c2c(OCC(=O)OC)cc3c(c2n1Cc1ccccc1)CCCC3 | 51 to 53 °C |
| C#CCNC(NCCSCc1[nH]cnc1C)=C(C#N)C#N | 112 to 115 °C |
| O=C(NCCc1ccccn1)c1ccccc1-c1ccccc1CNS(=O)(=O)c1ccccc1 | 131 °C |
| C=C1N(c2ccccc2)C(=O)OC12CCN(C(=O)N1CCN(C)CC1)CC2 | 139 to 140 °C |
| CC(C)(C)OCCCNC(=O)c1nn(C2CCCCO2)cc1NC(=O)c1ccccn1 (stereo not drawn) | 101 to 103 °C |

The remaining lines, values ahead:

| melting point | SMILES |
| --- | --- |
| 252 to 253 °C | COc1cc2nc(N3CCN(C(=O)C=Cc4ccoc4)CC3)nc(N)c2cc1OC |
| 193 to 195 °C | COc1cc(CC2(C#N)c3cc(Cl)c(Cl)cc3C=CN2C(=O)c2ccccc2)cc(OC)c1OC (stereo not drawn) |
| 110 to 112 °C | COC(=O)c1ccc(OCC(O)c2cc3cc(C(C)(C)C)ccc3o2)cc1 (stereo not drawn) |
| 139 to 140 °C | Cc1cc(F)ccc1Nc1c(C(=O)C(C)C)cnc2c(CO)cccc12 |
| 160 to 163 °C | COC(=O)C1=C(N)OC(C)=C(C(C)=O)C1c1cccc([N+](=O)[O-])c1 (stereo not drawn) |
| 82.5 to 84 °C | C=CC(O)(c1ccc(Cl)cc1)c1cccnc1 (stereo not drawn) |
| 69 to 70 °C | Cc1cc(Cl)c([N+](=O)[O-])c(Cl)n1 |
| 100 to 102 °C | COC(=O)Cc1cc(O)c(C(C)(C)C)cc1C |
| 243 to 248 °C | CCOC(=O)c1cn(-c2ccc(F)cc2F)c2nc(O)c(F)cc2c1=O |
| 97 to 99 °C | CCCOc1nc(N)nc2c1ncn2C1C=CC(CO)C1 (stereo not drawn) |
| 276 to 277 °C | CC(=O)c1ccc(-c2nc(=O)c3ccccc3s2)nc1 |
| 63 to 65 °C | N#Cc1ccc(OCc2ccsc2)cc1F |
| 125 to 132 °C | CC(C)C(NC(=O)C(C)(N)c1ccc2ccccc2c1)C(=O)Nc1nn(C(=O)OCc2ccccc2)c(=S)s1 (stereo not drawn) |
| 205 to 206 °C | CC1=C(C(=O)OC(CN2CCCCC2)c2ccccc2)C(c2cccc([N+](=O)[O-])c2)n2ccnc2N1 (stereo not drawn) |
| 170 °C | Cc1cc(C)cc(Oc2ccc(-n3ccnc3)nn2)c1 |
| 232 to 238 °C | O=C1Cn2ncnc2-c2cc(F)ccc2N1 |
| 218 to 219 °C | CCOc1ccc(NN=C2CCC(C)n3c2ncc(C(=O)O)c3=O)cc1 (stereo not drawn) |
| 158 to 161 °C | CC(=O)c1cc(Cl)ccc1Nc1ccc(O)cc1 |
| 71 to 73 °C | CC(=O)N1CCSc2cccc(C)c2C1 |
| 124 to 126 °C | COC(=O)C1CCC(c2csc(NC(=N)N)n2)C1 (stereo not drawn) |
| 94 to 96 °C | COc1cccc(C2=C(CC(C)N3CCCC3)C(=O)NCCC2)c1 (stereo not drawn) |
| 142 to 144 °C | COc1ccc(CCNC(=O)CCc2ccc(Cl)cc2)cc1C |
| 320 °C | CCOC(=O)c1cn(C)c2cnc3c(F)c(F)ccc3c2c1=O |
| 116 to 117 °C | Clc1ccc(-c2coc3ccc(Br)cc23)c(Cl)c1 |
| 169 to 170 °C | CC(C)(C)c1ccc(S(=O)(=O)Nc2cc(OCCO)ncn2)cc1 |
| 230 to 231 °C | Cn1c(COc2ccc(CC3SC(=O)NC3=O)cc2)nc2ccccc21 (stereo not drawn) |
| 96 to 99 °C | COc1cc(N)c(Cl)cc1C(=O)NCC1CCN(CCCCCC(=O)c2ccc(O)cc2O)CC1 |

| melting point | SMILES |
| --- | --- |
| 105 to 107 °C | Cn1c(=O)n(CCCCI)c(=O)c2ccccc21 |
| 143 °C | Cc1nc(N2CCc3ccccc3CC2)c(C#N)c(=O)n1C(F)F |
| 164 to 167 °C | Cc1c(Cc2ccncc2)nnc(Nc2cccc(Cl)c2)c1C |
| 52 to 56 °C | O=C1C(c2cccc(Br)c2)n2cncc2CN1Cc1ccccn1 (stereo not drawn) |
| 72 to 75 °C | CCc1noc(C)c1C(C)=NNc1ccccc1 |
| 139 °C | COc1ccc(C2CNC(=O)C2)cc1C1CCCC1 (stereo not drawn) |
| 122 to 124 °C | CCN(CC)C(=O)Nc1cc(C(C)(C)C)on1 |
| 112 to 113 °C | Cc1nc(-c2ccc(OCC(C)C)c([N+](=O)[O-])c2)sc1C(=O)OCC(C)C |
| 93 to 95 °C | CCCOc1nc2c(Cl)scc2c(=O)n1CCC |
| 188 to 190 °C | Cc1[nH]c2ccc(Br)cc2c1Cc1cccnc1 |
| 305 °C | Cc1ccc2c(c1)C(=O)c1ccc(C(N)=O)cc1S2(=O)=O |
| 111 to 112 °C | Cc1ccc(COc2ncc(F)c(N)n2)cc1 |
| 176 to 178 °C | Cc1cc(Cl)c(Cl)cc1C(=O)O |
| 168 to 174 °C | Cc1ccc(C(=S)c2cc(F)cc3c2NC(=O)C3)cc1 |
| 152 to 154 °C | O=C1CCCC(=O)N1c1cc(Br)cc(Br)c1 |
| 168 to 171 °C | CS(=O)(=O)Nc1cccc(Nc2nc(NCc3ccccc3O)c3nc[nH]c3n2)c1 |
| 159 to 160 °C | CCOC(=O)/C=C/c1cnn(C)c1-c1cccnc1 |
| 233 to 235 °C | Cc1nc(N(C)C)ccc1N1CCCn2c1nc1c(Cl)ccc(C(OC(F)F)C(F)(F)F)c12 (stereo not drawn) |
| 175 to 178 °C | CCn1c(Oc2cccc(N3CCNCC3)c2)nnc1[C@@H](C)NS(=O)(=O)c1ccc(Cl)c(Cl)c1 |
| 225 to 226 °C | COCCn1nc2c(N)nc3ccccc3c2c1CC(C)(C)C(N)=O |
| 134 to 135 °C | Cc1c(Cl)cccc1Nc1ncccc1[N+](=O)[O-] |
| 270 to 278 °C | O=C(O)c1cn(-c2cccnc2)nc1Br |
| 157 to 158 °C | CCON=C(C)c1cccc(S(N)(=O)=O)c1 |
| 265 to 266 °C | CCCc1nnc2c(=O)n(C)c3ccc(Cl)cc3n12 |
| 62 °C | COC(=O)C(C)c1ccc(C(=O)c2cccs2)cc1 (stereo not drawn) |
| 149 to 151 °C | CCN(CC)c1cccc2nc3n(c12)CC(N)CCN3c1ccc(Cl)cc1Cl (stereo not drawn) |
